Assay results reported in PubChem BioAssay AID1845216 (Molecular Pharmacology Branch, DTP, NCI, 2023).

Test system: SW 982 tumor spheroid viability
Experiment: Anticancer human tumor SW 982 cell line growth inhibition;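 also: spheroids exposed to compound for 7 days before readout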
Settings: spheroids with HUVEC and MSC; for IC50: curve of first compound; for viability, T/C: stronger effect = lower value
How it was run: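 Single agents and combinations were tested on spheroids built from tumor cells plus HUVEC and hMSC, at half-log dilutions starting at or near clinical Cmax, else 10 microM; final DMSO 0.25% (v/v).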

[1] = second compound 0.003 µM, first compound 0.0316 µM
[2] = second compound 0.003 µM, first compound 0.1 µM
[3] = second compound 0.003 µM, first compound 0.316 µM
[4] = second compound 0.003 µM, first compound 1 µM
[5] = second compound 0.003 µM, first compound 3.16 µM
[6] = second compound 0.003 µM, first compound 10 µM

## [2H]c1nc(C)nc([2H])c1-c1cc(NC[C@@H](C)c2cccc3c(C(=O)NC)ccnc23)ncn1 + CC[C@@]1(O)C(=O)OCc2c1cc1n(c2=O)Cc2cc3c(CN(C)C)c(O)ccc3nc2-1
Second compound 0.003 µM
  IC50: > 10 µM
Second compound 0.00949 µM
  IC50: > 10 µM
Second compound 0.03 µM
  IC50: > 10 µM
Second compound 0.0949 µM
  IC50: > 10 µM
Second compound 0.3 µM
  IC50: > 10 µM
[1]
  viability, T/C: 90.1%
[2]
  viability, T/C: 97.5%
[3]
  viability, T/C: 103%
[4]
  viability, T/C: 104%
[5]
  viability, T/C: 101%
[6]
  viability, T/C: 101%
Second compound 0.00949 µM, first compound 0.0316 µM
  viability, T/C: 89.1%
Second compound 0.00949 µM, first compound 0.1 µM
  viability, T/C: 89.4%
Second compound 0.00949 µM, first compound 0.316 µM
  viability, T/C: 89.2%
Second compound 0.00949 µM, first compound 1 µM
  viability, T/C: 95.2%
Second compound 0.00949 µM, first compound 3.16 µM
  viability, T/C: 82.1%
Second compound 0.00949 µM, first compound 10 µM
  viability, T/C: 78%
Second compound 0.03 µM, first compound 0.0316 µM
  viability, T/C: 77.4%
Second compound 0.03 µM, first compound 0.1 µM
  viability, T/C: 78%
Second compound 0.03 µM, first compound 0.316 µM
  viability, T/C: 83.7%
Second compound 0.03 µM, first compound 1 µM
  viability, T/C: 84.8%
Second compound 0.03 µM, first compound 3.16 µM
  viability, T/C: 95.4%
Second compound 0.03 µM, first compound 10 µM
  viability, T/C: 81.8%
Second compound 0.0949 µM, first compound 0.0316 µM
  viability, T/C: 69.7%
Second compound 0.0949 µM, first compound 0.1 µM
  viability, T/C: 72.5%
Second compound 0.0949 µM, first compound 0.316 µM
  viability, T/C: 76.5%
Second compound 0.0949 µM, first compound 1 µM
  viability, T/C: 70.9%
Second compound 0.0949 µM, first compound 3.16 µM
  viability, T/C: 84.5%
Second compound 0.0949 µM, first compound 10 µM
  viability, T/C: 73.5%
Second compound 0.3 µM, first compound 0.0316 µM
  viability, T/C: 58.2%
Second compound 0.3 µM, first compound 0.1 µM
  viability, T/C: 55.4%
Second compound 0.3 µM, first compound 0.316 µM
  viability, T/C: 54.3%
Second compound 0.3 µM, first compound 1 µM
  viability, T/C: 62.5%
Second compound 0.3 µM, first compound 3.16 µM
  viability, T/C: 45.1%
Second compound 0.3 µM, first compound 10 µM
  viability, T/C: 52.1%

## CC(C)n1c(=O)n(C)c2cnc3cc(F)c(-c4ccc(OCCCN5CCCCC5)nc4)cc3c21 + COc1cc2c(cc1O)CCNC21CSC2c3c(OC(C)=O)c(C)c4c(c3C(COC1=O)N1C(O)C3Cc5cc(C)c(OC)c(O)c5C(C21)N3C)OCO4
Second compound 30 pM
  IC50: 2.85 µM
Second compound 94.9 pM
  IC50: 5.66 µM
Second compound 0.0003 µM
  IC50: 2.45 µM
Second compound 0.000949 µM
  IC50: < 0.0316 µM
Second compound 0.003 µM
  IC50: < 0.0316 µM
Second compound 30 pM, first compound 0.0316 µM
  viability, T/C: 83.8%
Second compound 30 pM, first compound 0.1 µM
  viability, T/C: 87.3%
Second compound 30 pM, first compound 0.316 µM
  viability, T/C: 83.9%
Second compound 30 pM, first compound 1 µM
  viability, T/C: 76.5%
Second compound 30 pM, first compound 3.16 µM
  viability, T/C: 47.3%
Second compound 30 pM, first compound 10 µM
  viability, T/C: 42.7%
Second compound 94.9 pM, first compound 0.0316 µM
  viability, T/C: 80.6%
Second compound 94.9 pM, first compound 0.1 µM
  viability, T/C: 80.5%
Second compound 94.9 pM, first compound 0.316 µM
  viability, T/C: 79.1%
Second compound 94.9 pM, first compound 1 µM
  viability, T/C: 75.1%
Second compound 94.9 pM, first compound 3.16 µM
  viability, T/C: 59.8%
Second compound 94.9 pM, first compound 10 µM
  viability, T/C: 40.4%
Second compound 0.0003 µM, first compound 0.0316 µM
  viability, T/C: 69.2%
Second compound 0.0003 µM, first compound 0.1 µM
  viability, T/C: 65.5%
Second compound 0.0003 µM, first compound 0.316 µM
  viability, T/C: 72.4%
Second compound 0.0003 µM, first compound 1 µM
  viability, T/C: 64.5%
Second compound 0.0003 µM, first compound 3.16 µM
  viability, T/C: 45.9%
Second compound 0.0003 µM, first compound 10 µM
  viability, T/C: 37%
Second compound 0.000949 µM, first compound 0.0316 µM
  viability, T/C: 32.3%
Second compound 0.000949 µM, first compound 0.1 µM
  viability, T/C: 30.3%
Second compound 0.000949 µM, first compound 0.316 µM
  viability, T/C: 30.6%
Second compound 0.000949 µM, first compound 1 µM
  viability, T/C: 43.6%
Second compound 0.000949 µM, first compound 3.16 µM
  viability, T/C: 33.8%
Second compound 0.000949 µM, first compound 10 µM
  viability, T/C: 21.6%
[1]
  viability, T/C: 0.57%
[2]
  viability, T/C: 0.53%
[3]
  viability, T/C: 0.47%
[4]
  viability, T/C: 0.5%
[5]
  viability, T/C: 0.57%
[6]
  viability, T/C: 0.64%

## CC(C)n1c(=O)n(C)c2cnc3cc(F)c(-c4ccc(OCCCN5CCCCC5)nc4)cc3c21 + Cn1nnc2c(C(N)=O)ncn2c1=O
Second compound 1 µM
  IC50: > 10 µM
Second compound 3.16 µM
  IC50: 7.44 µM
Second compound 10 µM
  IC50: 4.91 µM
Second compound 31.6 µM
  IC50: 3.72 µM
Second compound 100 µM
  IC50: 1.88 µM
Second compound 1 µM, first compound 0.0316 µM
  viability, T/C: 91.7%
Second compound 1 µM, first compound 0.1 µM
  viability, T/C: 91.3%
Second compound 1 µM, first compound 0.316 µM
  viability, T/C: 91.5%
Second compound 1 µM, first compound 1 µM
  viability, T/C: 85.4%
Second compound 1 µM, first compound 3.16 µM
  viability, T/C: 68.1%
Second compound 1 µM, first compound 10 µM
  viability, T/C: 56.7%
Second compound 3.16 µM, first compound 0.0316 µM
  viability, T/C: 91%
Second compound 3.16 µM, first compound 0.1 µM
  viability, T/C: 84%
Second compound 3.16 µM, first compound 0.316 µM
  viability, T/C: 85.8%
Second compound 3.16 µM, first compound 1 µM
  viability, T/C: 84.2%
Second compound 3.16 µM, first compound 3.16 µM
  viability, T/C: 66.4%
Second compound 3.16 µM, first compound 10 µM
  viability, T/C: 44.3%
Second compound 10 µM, first compound 0.0316 µM
  viability, T/C: 75.2%
Second compound 10 µM, first compound 0.1 µM
  viability, T/C: 75.5%
Second compound 10 µM, first compound 0.316 µM
  viability, T/C: 78.5%
Second compound 10 µM, first compound 1 µM
  viability, T/C: 72.7%
Second compound 10 µM, first compound 3.16 µM
  viability, T/C: 55.8%
Second compound 10 µM, first compound 10 µM
  viability, T/C: 40.6%
Second compound 31.6 µM, first compound 0.0316 µM
  viability, T/C: 68.3%
Second compound 31.6 µM, first compound 0.1 µM
  viability, T/C: 70%
Second compound 31.6 µM, first compound 0.316 µM
  viability, T/C: 68.8%
Second compound 31.6 µM, first compound 1 µM
  viability, T/C: 62%
Second compound 31.6 µM, first compound 3.16 µM
  viability, T/C: 52.5%
Second compound 31.6 µM, first compound 10 µM
  viability, T/C: 35%
Second compound 100 µM, first compound 0.0316 µM
  viability, T/C: 55.1%
Second compound 100 µM, first compound 0.1 µM
  viability, T/C: 57.4%
Second compound 100 µM, first compound 0.316 µM
  viability, T/C: 55.2%
Second compound 100 µM, first compound 1 µM
  viability, T/C: 54%
Second compound 100 µM, first compound 3.16 µM
  viability, T/C: 46.4%
Second compound 100 µM, first compound 10 µM
  viability, T/C: 37%
